Experimental data reported in ChEMBL document CHEMBL5038673, “Novel Tricyclic Heteroaryl Compounds as IRAK4 Inhibitors for Treating Cancer, Autoimmune and Inflammatory Diseases” (ACS Med Chem Lett, 2022).

Target: T1, Interleukin-1 receptor-associated kinase 4 (Homo sapiens, UniProt Q9NWZ3)
T1 sequence (Q9NWZ3 whole entry): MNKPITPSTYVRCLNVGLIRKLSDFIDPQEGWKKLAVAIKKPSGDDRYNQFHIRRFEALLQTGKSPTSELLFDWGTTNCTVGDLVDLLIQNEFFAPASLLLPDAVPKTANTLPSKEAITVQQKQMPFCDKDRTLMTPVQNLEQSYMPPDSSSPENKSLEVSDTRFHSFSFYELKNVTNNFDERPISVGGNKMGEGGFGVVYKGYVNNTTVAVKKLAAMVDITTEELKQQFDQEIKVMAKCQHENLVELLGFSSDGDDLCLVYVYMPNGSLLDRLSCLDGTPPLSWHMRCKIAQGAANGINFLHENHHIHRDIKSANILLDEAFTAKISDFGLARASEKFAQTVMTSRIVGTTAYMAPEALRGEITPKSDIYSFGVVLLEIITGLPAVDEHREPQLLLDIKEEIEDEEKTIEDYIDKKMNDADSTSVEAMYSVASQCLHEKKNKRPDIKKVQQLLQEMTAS
Test: Inhibition of IRAK4 (unknown origin) using FL- IPTSPITTTYFFFKKK peptide as substrate in presence of ATP incubated for 60 mins by fluorescence assay

IC50: 1.9 nM
Compound: CC(C)Nc1c(C(=O)NCCC2CCNC2)cnc2c1[nH]c1cc(C#N)ccc12 (stereo unspecified)
